Measurements reported in US20240307415A1, “STEROID COMPOUND, AND PHARMACEUTICAL COMPOSITION THEREOF AND USE THEREOF” (JIANGSU SIMCERE PHARMACEUTICAL CO., LTD., priority 2021, published 2024).

Key:
[1] = Metabolic stability in mouse liver microsomes; assay type: in vitro ADME; conditions: CD-1, mouse, pH 7.4, 1 μM compound, 0.5 mg/mL microsome, NADPH 1 mM, 37° C., read-out: Mouse liver microsome stability t1/2
Description: • 1. Human liver microsome (Corning 452117), beagle dog liver microsome (XENOTECH D1000), SD rat liver microsome (XENOTECH R1000), and CD-1 mouse liver microsome (XENOTECH M1000) • 2. Na2HPO4 (Tianjin Guangfu Fine Chemical Research Institute 20180130) • 3. KH2PO4 (Tianjin Guangfu Fine Chemical Research Institute 20180920) • 4. MgCl2 (Tianjin Guangfu Fine Chemical Research Institute 20191216) • 5. NADPH (Solarbio 1216C022) • 6. Positive control compound verapamil (Sigma MKBV4993V) • 7. AB Sciex API4000 liquid chromatography-mass spectrometry system
• 1. Preparation of 100 mM phosphate-buffered saline (PBS): 7.098 g Na2HPO4 was weighed. 500 mL pure water was added. The mixture was dissolved by sonication to give solution A. 3.400 g KH2PO4 was weighed. 250 mL pure water was added. […]
All data were calculated by Microsoft Excel software. The peak area was detected through an extracted ion chromatogram. The in vitro half-life (t1/2) of the compound was determined by linear fitting of the natural logarithm of compound elimination percentage over time.
In vitro half-life (t1/2) was calculated by the slope k: […]
The in vitro intrinsic clearance (in μL/min/mg protein) was calculated using the following formula: […]

[2] = Plasma protein binding rate, mouse plasma (equilibrium dialysis); assay type: in vitro ADME; conditions: CD-1, mouse, pH 7.4, equilibrium dialysis 6 h, 37° C.
Procedure: The protein binding rates of the compound of the present invention in plasma of 5 species (humans, monkeys, dogs, rats, and mice) were determined using the following method.
• 1. Human plasma (BioIVT), monkey plasma (ADME-plasma-pooled monkey-05212020), beagle dog plasma (BioIVT), SD rat plasma (BioIVT), and CD-1 mouse plasma (BioIVT) • 2. Na2HPO4 (Sigma S5136-500G) • 3. NaH2PO4 (Sigma S3139-500G) • 4. NaCl (Sigma S5886-IKG) • 5. 96-well equilibrium dialysis plate (HTDialysis LLC, Gales Ferry, CT, HTD96B) and equilibrium dialysis membrane (MWCO 12-14K, 1101) • 6. Positive control compound warfarin • 7. ABI QTrap 5500 liquid chromatography-mass spectrometry system
• 1. […] Preparation of a dialysis membrane: the dialysis membrane was soaked in ultrapure water for 60 min to separate the membrane into two pieces, then soaked with 20% ethanol for 20 min, and finally soaked with dialysis buffer for 20 min. • 3. Preparation of plasma: the frozen plasma was quickly thawed at room temperature and then centrifuged at 3,220 g at 4° C. for 10 min to remove clots, and the supernatant was collected to a new centrifuge tube. The pH of the plasma was measured and recorded. The plasma with pH 7-8 was used. • 4. […]
The peak areas of the compound on the buffer side and the plasma side were measured. The plasma protein binding rate of the compound was calculated by the following formula: […]

## C[C@]12C=CC(=O)C=C1CC[C@@H]1[C@@H]2[C@@H](O)C[C@@]2(C)[C@H]1C[C@H]1O[C@@H](c3ccc(Cc4cc(N)c5c(c4)CCO5)cc3)O[C@]12C(=O)CO [Compound 009, (6aR,6bS,7S,8aS,8bS,10R,11aR,12aS,12bS)-10-(4-((7-amino-2,3-dihydrobenzofuran-5-yl)methyl)phenyl)-7-hydroxy-8b-(2-hydroxyacetyl)-6a,8a-dimethyl-6a,6b,7,8,8a,8b,11a,12,12a,12b-decahydro-1H-naphtho[2′,1′:4,5]indeno[1,2-d][1,3]dioxolan-4(2H)-one]
[1]
  half-life at 1 μM: 17.3 min
[2]
  fraction unbound at 6 h, 1 μM: 0.002
